By vapor or sublimation pressure is commonly meant the equilibrium pressure above the liquid or solid.

For this data set the following is noted: Liquid, Closed cell (Static) method.

± gives the expanded uncertainty stated by the source.

In the case of `F/C=C/C(F)(F)F` [trans-1,3,3,3-tetrafluoropropene], the “vapor or sublimation pressure” value runs as follows: (293.15 K) 427.4 ± 5.1 kPa; (303.15 K) 577.6 ± 5.1 kPa; (313.15 K) 765.3 ± 5.2 kPa; (323.14 K) 997.8 ± 5.3 kPa.
With `FCF` [difluoromethane], the “vapor or sublimation pressure” value is, setting by setting: (293.15 K) 1473.2 ± 5.7 kPa; (303.15 K) 1926.7 ± 6.1 kPa; (313.15 K) 2476.3 ± 6.6 kPa; (323.14 K) 3142.2 ± 7.2 kPa.
Consider `FCC(F)(F)F` [1,1,1,2-tetrafluoroethane], for which the “vapor or sublimation pressure” value by setting is: (293.15 K) 571.1 ± 5.1 kPa; (303.15 K) 771.4 ± 5.2 kPa; (313.15 K) 1018.1 ± 5.3 kPa; (323.14 K) 1316.9 ± 5.5 kPa.
